# From patent US20100129434A1, “COMPOSITIONS AND METHODS FOR THE TREATMENT OF MUCORMYCOSIS AND OTHER FUNGAL DISEASES” (priority 2006, published 2010)
# How the values were obtained:
# R. oryzae [1] = experiment: Survival of guinea pigs infected with R. oryzae and treated with iron chelators; assay type: in vivo; conditions: guinea pigs infected with R. oryzae
# Text: The role of iron metabolism in the pathogenesis of mucormycosis allows the possibility of utilizing effective iron chelators for antifungal therapy, including as an adjunctive antifungal therapy.
# R. oryzae [2] = experiment: Tissue fungal burden of DKA mice infected with R. oryzae; assay type: in vivo, BALB/c male mice; conditions: 3.8×10^3 spores, two doses, brains harvested about 54 h post-infection, P<0.036
# Protocol: (§1) Briefly, for in vivo infection, BALB/c male mice (>20 g) were rendered diabetic with a single i.p. injection of 210 mg/kg streptozotocin in 0.2 ml citrate buffer 10 days prior to fungal challenge. […] Mice were infected through the tail vein with the appropriate inocula of R. oryzae. To confirm the inocula, dilutions were streaked on PDA plates and colonies were counted following a 24 h incubation period at room temperature. The primary efficacy endpoint was time to death. As a secondary endpoint, brain fungal burden (the primary target organ) was determined by homogenization by rolling a pipette on organs placed in Whirl-Pak bags (Nasco, Fort Atkinson, Wis.) containing 2 ml saline. The homogenate was serially diluted in 0.85% saline and then quantitatively cultured on PDA. Values were expressed as log 10 cfu g^−1 tissue. All procedures involving mice were approved by the institutional animal use and care committee, following the National Institutes of Health guidelines for animal housing and care.
# (§2) For in vivo infection, BALB/c male mice (>20 g) were rendered diabetic with a single i.p. injection of 210 mg/kg streptozotocin in 0.2 ml citrate buffer 10 days prior to fungal challenge. […] For neutropenic mouse model, mice were injected with a single i.p. dose of 200 mg/kg cyclolphosphamide (Bristol Myer Squibb) 2 days prior to infection with R. oryzae. […] Mice were infected through the tail vein with the appropriate inocula of R. oryzae. To confirm the inocula, dilutions were streaked on PDA plates containing 0.1% triton and colonies were counted following a 24 h incubation period at 37° C. The primary efficacy endpoint was time to death. As a secondary endpoint, brain fungal burden (the primary target organ) was determined by homogenization by rolling a pipette on organs placed in Whirl-Pak™ bags (Nasco®, Fort Atkinson, Wis.) containing 1 ml saline. The homogenate was serially diluted in 0.85% saline and then quantitatively cultured on PDA. Values were expressed as log10 cfu g−1 tissue. Finally, for histopathological analysis, infected organs were collected from mice and fixed in 10% zinc formalin. Fixed tissues were embedded in paraffin, and […] sections were stained with haematoxylin and eosin for light microscopy examination. All procedures involving mice were approved by the institutional animal use and care committee, following the National Institutes of Health guidelines for animal housing and care.
# R. oryzae 99-880 = experiment: MIC and MFC of deferiprone and deferoxamine against R. oryzae; assay type: cell-based, Rhizopus oryzae; conditions: for MFC / MIC: R. oryzae
# Protocol: Initially, the in vitro activity of deferiprone against R. oryzae was assessed in this study. Briefly, R. oryzae 99-880 was isolated from a brain abscess of a diabetic patient. The organism was grown on potato dextrose agar (PDA) for 3 days at 37° C. In some experiments, R oryzae was starved for iron by growth on PDA in the presence of 1 mM of ascorbic acid and ferrozine. The sporangiospores were collected in endotoxin free PBS containing 0.01% Tween 80, washed with PBS then counted with hemacytometer to prepare the final inocula. For susceptibility testing, the minimum inhibitory concentration (MIC) and minimum fungicidal concentration (MFC) were determined for Def and deferoxamine by the method of Espinel-Ingroff (J Clin Microbiol 39:954 (2001)).
# R. oryzae [3] = experiment: Survival of diabetic ketoacidotic (DKA) mice infected with R. oryzae; assay type: in vivo, BALB/c male mice; conditions: for survival compared to placebo: 4.3×10^3 spores; for efficacy of Def on administration of FeCl3: Def 100 mg/kg qod plus FeCl3 60 mg/kg iv
# Protocol: as §1
# Deferiprone (Apotex Research Inc.) was dissolved in iron-free water and administered intraperitoneally at 50, 100, or 200 mg/kg qd or qod (every other day). Treatment was begun 24 h post infection and continued for a total of 4 doses. Control groups were treated with the diluent, 5% dextrose water.
# Deferiprone is known to form molecular complexes with ferric iron (^3+Fe) in a 1:3 ratio of iron to deferiprone. Based on the known molecular weights of ferric chloride (FeCl3, molecular weight 162.22 g/mol) and deferiprone (molecular weight 139 g/mol), a 60 mg/kg dose of FeCl3 was calculated to result in a significant excess of ^3+Fe vs. a 100 mg/kg dose of deferiprone given to an 18 g mouse: ^3+Fe moles=(0.060 g/kg*0.018 kg [mouse weight]/162.22 g/mol)=6.5×10^−6 mol vs. deferiprone moles=(0.1 g/kg*0.018 kg [mouse weight]/139 g/mol)=1.3×10^−5 mol Ratio=1:2 moles of ^3+Fe to deferiprone, which is more than that required to achieve a saturating 1:3 ratio.
# Statistical analysis was performed using the nonparametric log rank test was used to determine differences in survival times of the mice. Differences in tissue fungal burdens in the infected organs were compared by the nonparametric Steel test for multiple comparisons. P values of <0.05 were considered significant.
# Deferasirox (Novartis Pharmaceuticals, Basel, Switzerland) was suspended in 0.5% hydroxypropylcellulose (Klucel) and administered by oral gavage at 1, 3, or 10 mg/kg […] (qd) or every other day (qod). Treatment was begun 24 h post infection and continued for a total of 5 or 7 doses. Control groups were treated with the diluent, 5% dextrose water and 0.5% Klucel. In some experiments, a saturating dose of free iron was administered with deferasirox. Deferasirox is known to form molecular complexes with ferric iron (^3+Fe) in a 1:2 ratio of iron to deferasirox. Based on the known molecular weights of ferric chloride (FeCl3, molecular weight 162.22 g/mol) and deferasirox (molecular weight 373.4 g/mol), a 2.8 mg/kg dose of FeCl3 was calculated to result in a significant excess of ^3+Fe vs. a 10 mg/kg dose of deferasirox given to an 18 g mouse: ^3+Fe moles=(0.0028 g/kg*0.018 kg [mouse weight]/162.22 g/mol)=3×10^−7 mol vs. deferasirox moles=(0.01 g/kg*0.018 kg [mouse weight]/373.4 g/mol)=5×10^−7 mol Ratio=1:1.7 moles of ^3+Fe to deferasirox, which is more than that required to achieve a saturating 1:2 ratio.
# The nonparametric log rank test was used to determine differences in survival times of the mice. Differences in tissue fungal burdens, splenic lymphocyte frequencies, and whole organ cytokines in the infected organs were compared by the Mann Whitney U test. P values of <0.05 were considered significant.
# R. oryzae [4] = experiment: Survival of neutropenic mice infected with R. oryzae; assay type: in vivo; conditions: prophylaxis from day −1, Def qod, LAmB qd or both, four doses, placebo 0%
# Protocol: as §2
# Two days later, mice were infected via the tail-vein with 2.7×10^3 spores of R. oryzae 99-892.
# invasive mucormycosis = conditions: patients treated with deferoxamine; cited from earlier work
# [5] = Rhizopus arrhizus, 99880, 24 h, 24 h
# [6] = Rhizopus arrhizus, 99880, 48 h, 48 h
SMILES,Mean (±SD) Survival Time (R. oryzae [1]) [days],brain fungal burden compared to placebo (R. oryzae [2]),static or cidal effect against R. oryzae (R. oryzae 99-880; 24 h of incubation),"static or cidal effect against R. oryzae (R. oryzae 99-880; 24 h of incubation, listed as deferiprone)",static or cidal effect against R. oryzae (R. oryzae 99-880; 48 h of incubation),"static or cidal effect against R. oryzae (R. oryzae 99-880; 48 h of incubation, listed as deferiprone)",MFC (R. oryzae 99-880; 48 h) [µg/mL],MIC (R. oryzae 99-880; [5]) [µg/mL],MIC (R. oryzae 99-880; [6]) [µg/mL],"28-day survival (R. oryzae [3]; DKA mice infected with R. oryzae, treatment from 24 h post infection, 4 doses, LAmB 15 mg/kg qd iv, Def 100 mg/kg qod ip, placebo 0%) [%]","survival compared to placebo (R. oryzae [3]; DKA mice, 50 mg/kg qd or qod)","survival compared to placebo (R. oryzae [3]; DKA mice, 100 mg/kg qd or 200 mg/kg qd or qod)","survival compared to placebo (R. oryzae [3]; DKA mice, 100 mg/kg qod, 4 doses from 24 h post infection, P=0.027)",efficacy of Def on administration of FeCl3 (R. oryzae [3]; DKA mice),"efficacy of Def on administration of FeCl3 (R. oryzae [3]; DKA mice, listed as Def)","28-day survival compared to placebo (R. oryzae [3]; DKA mice, LAmB 15 mg/kg qd or deferiprone 100 mg/kg qod, P<0.003 Log Rank)",survival (R. oryzae [4]) [%],"MFC (R. oryzae 99-880; 24 h, listed as deferoxamine) [µg/mL]","MFC (R. oryzae 99-880; 48 h, listed as deferoxamine) [µg/mL]",mortality of invasive mucormycosis (invasive mucormycosis) [%]
CCc1c(O)c(=O)ccn1CC [CP94],8.7 ± 1.0,–,–,–,–,–,–,–,–,–,–,–,–,–,–,–,–,–,–,–
"Cc1c(O)c(=O)ccn1C [Deferiprone, 1,2 dimethyl-3-hydroxypyrid-4-1]",16.2 ± 4.0,reduced brain fungal burden,static,static effect,cidality,cidal effect,6.25,3.12,6.25,30,did not improve survival,did not improve survival,improved survival,completely abrogated,abrogated,improved 28-day survival,22,–,–,–
CC(=O)N(O)CCCCCNC(=O)CCC(=O)N(O)CCCCCNC(=O)CCC(=O)N(O)CCCCCN [Deferoxamine],4.8 ± 1.1,–,–,–,–,–,–,> 100,> 100,–,–,–,–,–,–,–,–,> 100,> 100,> 80
